Measurements as given in PubChem BioAssay (NCI).
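Dose response: 5 concentrations. Exposure: 48 h. Format: 96-well plates. Endpoint: linear interpolation; highest concentration if not reached. Abbreviation: GI50, concentration required for 50% inhibition of growth. The concentration for full growth arrest is given as TGI.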

How the values were obtained:
Experiment in all cases: DTP human tumour cell line panel, 48 h
[1] = tested on: COLO 205 colon
[2] = tested on: HOP-92 NSCLC
[3] = tested on: IGROV1 ovarian
[4] = tested on: KM12 colon
[5] = tested on: LOX IMVI melanoma
[6] = tested on: OVCAR-8 ovarian
[7] = tested on: RPMI-8226 leukemia
[8] = tested on: SNB-75 CNS
[9] = tested on: TK-10 renal
[10] = tested on: A498 renal

| SMILES | TGI [1] [µM] | TGI [2] [µM] | TGI [3] [µM] | TGI [4] [µM] | TGI [5] [µM] | TGI [6] [µM] | TGI [7] [µM] | TGI [8] [µM] | TGI [9] [µM] | TGI [10] [µM] | GI50 [1] [µM] | GI50 [2] [µM] | GI50 [3] [µM] | GI50 [4] [µM] | GI50 [5] [µM] | GI50 [6] [µM] | GI50 [7] [µM] | GI50 [8] [µM] | GI50 [9] [µM] | GI50 [10] [µM] |
| --- | --- | --- | --- | --- | --- | --- | --- | --- | --- | --- | --- | --- | --- | --- | --- | --- | --- | --- | --- | --- |
| O=c1cnn2c(n1)sc1ccc3ccccc3c12 | > 100 | > 100 | > 100 | > 100 | > 100 | > 100 | > 100 | > 100 | > 100 | – | – | – | – | – | – | – | – | – | – | – |
| NC(=S)N/N=C1/C(=O)N(c2ccc(Cl)cc2Cl)C(=O)C(=O)C1c1nc2ccccc2s1 (stereo not drawn) | > 100 | > 100 | > 100 | > 100 | > 100 | > 100 | > 100 | > 100 | > 100 | – | – | – | – | – | – | – | – | – | – | – |
| Nc1c(-c2ccc(Cl)cc2Cl)[n+]([O-])c2ccccc2[n+]1[O-] | > 100 | – | > 100 | > 100 | > 100 | > 100 | > 100 | > 100 | > 100 | > 100 | – | – | – | – | – | – | – | – | – | – |
| COc1ccc([N+](=O)[O-])c(S(=O)(=O)c2ccc(Cl)cc2)n1 | 3.88 | 6.17 | 31.3 | 27.8 | 4.19 | 15.9 | 51.9 | 23.6 | 11.7 | – | 1.96 | 2 | 12.2 | 14 | 1.98 | 3.67 | 3.38 | 11 | 3.57 | – |
| COc1ccc(-c2nc(-c3nc4ccc(OC)cc4[nH]3)cc3c2[nH]c2ccccc23)cc1 | > 100 | – | > 100 | > 100 | > 100 | > 100 | 2.86 | – | > 100 | > 100 | 6.76 | – | 2.83 | 2.57 | 3.14 | 1.04 | 0.363 | – | 3.14 | 3.34 |
| Cc1ccc(C)c(-c2csc(Nc3ccc(C)c(C)c3)n2)c1 | > 100 | > 100 | > 100 | > 100 | > 100 | > 100 | > 100 | 53.2 | > 100 | – | > 100 | 29 | 62.8 | > 100 | > 100 | 74.7 | > 100 | 15.8 | > 100 | – |
| Cc1cc(Cl)ccc1N=C1NC(=O)C(CC(=O)Nc2ccc(Cl)cc2Cl)S1 (stereo not drawn) | > 100 | – | > 100 | > 100 | > 100 | > 100 | > 100 | > 100 | > 100 | – | – | – | – | – | – | – | – | – | – | – |
| O=[N+]([O-])c1nccn1COCCF | > 100 | > 100 | > 100 | > 100 | > 100 | > 100 | > 100 | > 100 | > 100 | – | – | – | – | – | – | – | – | – | – | – |
| COC(=O)C1=C(CO)C2C=CC1C2 (stereo not drawn) | > 100 | – | > 100 | > 100 | > 100 | > 100 | > 100 | > 100 | > 100 | > 100 | – | – | – | – | – | – | – | – | – | – |
| O=c1c2ccccc2c2nc3ccccc3nc2n1C1CCCCC1 | > 100 | – | > 100 | > 100 | – | > 100 | > 100 | > 100 | > 100 | – | – | – | – | – | – | – | – | – | – | – |
| OCC12C3C4C1C1C2C3C41CO (stereo not drawn) | > 100 | > 100 | > 100 | – | > 100 | > 100 | > 100 | – | > 100 | > 100 | – | – | – | – | – | – | – | – | – | – |
| CC1=C(C(=O)NCc2ccccc2)C(c2ccccc2[N+](=O)[O-])C(C(=O)NCc2ccccc2)=C(C)N1 | 33.8 | 36.6 | 40.9 | 23.1 | 21.3 | 43.3 | – | 26.6 | 31.4 | 32.4 | – | – | – | – | – | – | – | – | – | – |
| O=C(NO)C12C3C4C1C1C2C3C41C(=O)NO (stereo not drawn) | > 100 | – | – | > 100 | > 100 | > 100 | > 100 | > 100 | > 100 | > 100 | – | – | – | – | – | – | – | – | – | – |
| O=C1C(=O)C(Br)(Br)C(Br)=C1Br | 32.9 | 36.7 | > 100 | 28.6 | 31.9 | 36.6 | 99.5 | 27.7 | 39.9 | – | – | – | – | – | – | – | – | – | – | – |
| C1=Cc2nc1c(-c1ccncc1)c1ccc([n-]1)c(-c1ccncc1)c1nc(c(-c3ccncc3)c3ccc([n-]3)c2-c2ccncc2)C=C1.[Zn+2] | > 100 | > 100 | > 100 | > 100 | > 100 | > 100 | > 100 | > 100 | > 100 | – | – | – | – | – | – | – | – | – | – | – |
| Nc1ccn(C2CC(CO)C(O)C2O)c(=O)n1 (stereo not drawn) | > 57.7 | – | > 57.7 | > 57.7 | – | > 57.7 | > 57.7 | > 57.7 | > 57.7 | > 57.7 | – | – | – | – | – | – | – | – | – | – |
